Where a SMILES comes first, the peptide text is derived from it. Bridges are numbered along the chain shown (N, C = ends). [ ]: non-standard residue; d: D form. S5 = C=CCCC[C@](C)(N)C(=O)O
What was measured:
[1] = Inhibition of pERK in human ASPC1 cells measured after 1 hr
[2] = Inhibition of pERK in human ASPC1 cells measured after 18 hr
[3] = biological target: GTPase KRas (Homo sapiens, UniProt P01116); test: Binding affinity to KRas G12C mutant (unknown origin) assessed as dissociation constant by biolayer interferometry assay
Sequence of GTPase KRas (P01116 whole entry G12C): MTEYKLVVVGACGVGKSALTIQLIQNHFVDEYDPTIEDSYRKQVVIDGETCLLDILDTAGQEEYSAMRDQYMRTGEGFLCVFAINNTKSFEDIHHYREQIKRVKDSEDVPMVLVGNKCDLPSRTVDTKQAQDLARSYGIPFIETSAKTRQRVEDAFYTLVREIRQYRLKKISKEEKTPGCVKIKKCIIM

| EC50 [1] [µM] | EC50 [2] [µM] | SMILES | Kd [3] [µM] |
| --- | --- | --- | --- |
| 1.2 | 1.5 | CC[C@H](C)[C@@H]1NC(=O)[C@H](Cc2ccc(O)cc2)NC(=O)[C@H](CC(C)C)NC(=O)[C@@H]2CCCN2C(=O)[C@H](NC(=O)[C@@H](CCCNC(=N)N)NC(=O)[C@@H](CCCNC(=N)N)NC(=O)[C@@H](CCCNC(=N)N)NC(=O)[C@@H](CCCNC(=N)N)NC(=O)[C@H](CCCCN=[N+]=[N-])NC(C)=O)CSSC[C@@H](C(=O)N[C@H](CCCNC(=N)N)C(=O)N[C@H](CCCNC(=N)N)C(=O)N[C@H](CCCNC(=N)N)C(=O)N[C@H](CCCNC(=N)N)C(N)=O)NC(=O)[C@H](C(C)C)NC(=O)[C@@H]2CCCN2C(=O)[C@H](CC(=O)O)NC(=O)[C@H](Cc2ccc(O)cc2)NC(=O)[C@](C)(CO)NC1=O |  |
|  |  | CC[C@H](C)[C@H](NC(=O)CNC(=O)[C@H](Cc1ccccc1)NC(C)=O)C(=O)N[C@@]1(C)CCCC=CCCC[C@@](C)(C(=O)N[C@@H](CC(C)C)C(=O)N[C@@H](CCCCN)C(=O)N[C@H](C(N)=O)[C@@H](C)O)NC(=O)[C@H](CC(N)=O)NC(=O)[C@H]([C@@H](C)O)NC(=O)[C@H](CC(C)C)NC1=O (Ac-FGI[S5]LTN[S5]LKT-NH2; staple 4-8) | 7.67 |

Reference: BindingDB's records for PubMed 39326269 (Second Military Medical University)
